Common to all, as to assay type: cell-based, human
The test system of experiment [1] is NCIH2087 cells. Kind of experiment: Proliferation inhibition, CellTiter-Glo, NCIH2087. Particulars: Table D-2, NCIH2087 (BRAF L597V; KRAS Q61K), 3 days, read-out: Prolif. (proliferation EC50). As for the experimental part: (§1) All cancer cell lines (A375, A101D, A2058, RKO, HT29 SK-MEL 30, IPC298, HepG2, HCT-116, Lovo, SW620, SW480, NCI-H358, NCI-H2122, Calu-6, NCIH2087, NCIH1755, NCIH1666 and Mewo) were obtained from ATCC and cultured in RPM1-1640 medium (Gibco) supplemented with 5% heat inactivated fetal bovine serum (FBS, Wisent) at 37° C. under 5% CO2. Cells were maintained in T175 flasks (Greiner). They were passaged by removing the culture medium, washing once in 10 mL of room temperature Phosphate Buffered Saline (PBS; Wisent) and incubating at 37° C. with 2 mL of 0.05% Trypsin (Thermo-Fisher). Trypsin was then inactivated by adding complete growth medium and the cells were then replated in a T175 culture dish at the appropriate dilution. All cell lines were routinely tested for mycoplasma contamination. Tissue type and mutational status of each cell line can be found in Table B.
(§2) CellTiter-Glo® viability analysis was conducted on cells plated in 100 μL of complete RPMI-1640 growth medium in 96-well flat-bottomed white opaque plates (Greiner or Croning) at a density indicated in Table E (for each CCL, number of cells plated per well of a 96-well plate to perform the CellTiter-Glo® cell viability assay). The cell density in cells/cm^2 would correspond to cell number divided by the area of one well of a 96-well plate (0.32 cm^2). […]
(§3) After 3 days of incubation, the growth media were removed by aspiration and 60 μL of diluted CellTiter-Glo® reagent (10 μL CellTiter-Glo® reagent+50 μL of PBS) was added to each well. […] Luminescence signals were then acquired on a Synergy Neo2 plate reader (Biotek).
(§4) The effect of each compound dilution on the proliferation of cancer cell lines was expressed in % inhibition and calculated as follows. […]
(§5) The ability of each compound to inhibit proliferation was expressed as a EC50 value obtained by plotting the effect values for each data point of a dilution series and fitting the obtained curves using a log(agonist) versus response—variable slope (four parameters) function using GraphPadPrism (V7.0) or Dotmatics Screening Ultra platform.

The subject of experiment [2] is pERK, SW480 cells. In words: Phospho-ERK inhibition, AlphaLISA p-ERK 1/2, SW480. Particulars: Table D-2; for IC50: SW480 (KRAS G12D); for pERK value in parentheses, % inhibition (Ymin): SW480, lowest point of IC50 curve. As for the experimental part: as §1
(§6) (c) Measurement of Phospho-ERK Inhibition in Cultivated Human Cancer Cell Lines by the AlphaLISA® SureFire® Ultra™ p-ERK 1/2 (Thr2O2/Tyr204)
(§7) AlphaLISA® SureFire® Ultra™ p-ERK 1/2 (Thr202/Tyr204) analysis was conducted on cells plated in 100 μL of complete RPMI-1640 growth medium in 96-well flat-bottomed transparent dishes (Costar) at a density indicated in Table C. Cells were maintained overnight at 37° C. under 5% CO2 before treatment with compounds' dilution series for one hour. The cell density in cells/cm^2 corresponds to cell number divided by the area of one well of a 96-well plate (0.143 cm^2).
(§8) In a dilution series 100 μL/well of test substance dilution prepared in complete RPMI-1640 growth media was added to the cells. The dilution series is selected so that ten concentrations cover a range from 10 μM to 0.33 nM. If necessary, the initial concentration of 10 μM is increased to 100 μM or lowered to 1 μM (as in the case of A375 and H1666 cells, which are generally more sensitive to the compounds) and further dilution is carried out accordingly. The final concentration of DMSO in the assay is set at 0.5%.
(§9) After treatment, media was removed, and cells were lysed in 50 μL of 1× AlphaScreen Ultra Lysis Buffer (Perkin Elmer). The AlphaLISA® SureFire® Ultra™ p-ERK 1/2 (Thr202/Tyr204) (PerkinElmer) reactions were performed with 5 μL of cell lysate according to the manufacturer's specifications in 384-well proxyplates (Perkin Elmer) followed by overnight incubation of the reactions at room temperature in a humidified chamber. After completion of the reactions, the signals were recorded on an EnVision plate reader (Perkin Elmer) using built in AlphaLISA® settings.
(§10) The effect of each compound dilution on the pERK signal was expressed in % inhibition and calculated as follows. An internal 100% inhibition control (1 μM trametinib, cat. No. HY-10999; MedChem Express; CAS No. 871700-17-3) was included in each plate and used as a measure of pERK background. First, the value obtained for trametinib was subtracted from each data point. The average of DMSO (vehicle) controls (set as 0% inhibition) was established and used to calculate % inhibition:
(§11) The ability of each compound to inhibit pERK signal was expressed as an IC50 value obtained by plotting the inhibition values for each data point of a dilution series and fitting the obtained curves using a log(agonist) versus response—variable slope (four parameters) function using GraphPadPrism (V7.0) or Dotmatics Screening Ultra platform.
(§12) When present, paradoxical pERK induction is inferred from the negative % inhibition values observed in the pERK IC50 curves of a compound.

The subject of experiment [3] is Lovo cells. Kind of experiment: Proliferation inhibition, CellTiter-Glo, Lovo. Particulars: Table D-2, Lovo (KRAS-G13D), 3 days, read-out: Prolif. (proliferation EC50). As for the experimental part: as §1, §2, §3, §4, §5
Experiment [4] concerns pERK, NCI-H358 cells. Kind of experiment: Phospho-ERK inhibition, AlphaLISA p-ERK 1/2, NCI-H358. Particulars: Table D-2; for IC50: NCI-H358 (KRAS-G12C); for pERK value in parentheses, % inhibition (Ymin): NCI-H358, lowest point of IC50 curve. As for the experimental part: as §1, §6, §7, §8, §9, §10, §11, §12

Like-named read-outs stand apart in the source and are kept apart here.

Consider three compounds from US20260137697A1, “THIAZOLO[5,4-D]PYRIMIDINE COMPOUNDS, COMPOSITIONS COMPRISING THEM AND USES THEREOF” (University de Montreal, priority 2022, published 2026).

For `Cc1ccc2c(Nc3cccc(Cl)c3F)nccc2c1NC(=O)c1csc2c(N)ncnc12` [Belvarafenib, reference compound], the EC50 was less than 300 nM in experiment [1] (Homo sapiens, NCI-H2087, 72 h) and less than 300 nM in experiment [3] (Homo sapiens, 72 h). For the same compound, the IC50 in experiment [2] (Homo sapiens) and in experiment [4] (Homo sapiens) was 30 to 300 nM throughout. The entries for the “pERK value in parentheses, % inhibition (Ymin)” value (“pERK value … % inhibition (Ymin)” for short) in experiment [2] and in experiment [4] were “(−100) %” and “(−122) %”, respectively.

In the case of `N#CC1(c2cccc3c2ncn3-c2nc3c(Nc4c(F)ccc(NS(=O)(=O)c5cccc(Cl)c5Cl)c4F)ncnc3s2)CC1` [Example 122], the EC50 in experiment [1] and in experiment [3] was less than 300 nM in each case. The IC50 in experiment [2] and in experiment [4] was 30 to 300 nM each time. The “pERK value … % inhibition (Ymin)” value was “(5) %” in experiment [2] and “(−3) %” in experiment [4].

As to `Cc1c(F)cccc1S(=O)(=O)Nc1ccc(F)c(Nc2ncnc3sc(-n4cc(C(=O)N5C6CCC5CN(C)C6)c5ccccc54)nc23)c1F` [Example 44], the EC50 in experiment [1] and in experiment [3] was less than 300 nM in each case. Also, the IC50 in experiment [2] and in experiment [4] was 30 to 300 nM each time. Further, the “pERK value … % inhibition (Ymin)” value in experiment [2] is listed as “(−4) %”; in experiment [4], “(1) %”.
